Assay results published in patent US4390540A, “Imidazoquinazolines having pharmaceutical activity” (Hoffmann-La Roche Inc., priority 1980, dated 1983).
Like-named read-outs stand apart in the source and are kept apart here.

Key:
[1] = test system: left ventricular pressure (LVP); experiment: Positive inotropic activity (dLVP/dtmax) in conscious sheep dogs; type: in vivo; conditions: oral; for change in vivo at 3 mg/kg / change in vivo at 1 mg/kg / change in vivo at 10 mg/kg: Canis lupus familiaris, read-out: Inotropy Δ% (percentage variation of dLVP/dtmax)
Experimental: (§1) The positive inotropic activity was measured after the oral administration of the test substances to conscious sheep dogs. For this purpose, the animals are provided with an implanted pressure-telemetry system, whereby the pressure receiver is fixed in the left ventricle. The left ventricular pressure is sent from the animal via the implanted radio transmitter and received via a suitable antenna and receiving system, demodulated and amplified. By differentiation of the ascending side of the left ventricular pressure (LVP), there is calculated the maximum pressure increase rate (dLVP/dtmax) which represents the contractility parameter. Simultaneously, the heart frequency is recorded via a cardiotachograph. Under inotropy there are indicated the percentage variation (Δ%) of dLVP/dtmax and the duration of activity in hours (Hrs.). Under tachycardia there are indicated the percentage variations of the heart frequency (Δ%) after administration of the test substance and the duration of activity in hours (Hrs.).

heart frequency = experiment: Heart frequency (tachycardia) in conscious sheep dogs; type: in vivo; conditions: oral
Experimental: as §1

[2] = test system: Human platelet-rich plasma; experiment: Collagen-induced blood platelet aggregation (aggregometer method of Born); type: cell-based; conditions: 10 min; human platelet-rich citrate plasma, 37° C., 10 minutes incubation, collagen fibrils; read-out: EC50 (collagen-induced blood platelet aggregation, maximum aggregation velocity)
Experimental: The maximum aggregation velocity was taken as the test parameter, and the effective concentration (EC50) was ascertained from dosage-activity curves. Human platelet-rich plasma was obtained by centrifugation from citrated venous blood. The experiments were carried out with suspensions of the test substances in 0.9% sodium chloride. 0.18 ml of citrate plasma was treated with a 10 μl suspension of the test compounds and incubated at 37° C. for 10 minutes, whereupon the aggregation was initiated by the addition of 10 μl of a suspension of collagen fibrils.

gastric acid secretion = experiment: Gastric acid secretion inhibition in pylorus-ligated rats (Shay); type: in vivo; conditions: Rattus norvegicus, intraduodenally, female rats, 4 hours
Experimental: The experimental procedure described hereinafter was used to determine the gastric acid secretion-inhibiting activity. More specifically, the pylorus of female rats, which had received no food for 24 hours, but which had received water ad libitum, is ligatured under slight ether narcosis in accordance with Shay et al. [Gastroenterology 5, 43 (1945)]. Immediately thereafter the substance to be tested is administered intraduodenally to the animals. Four hous later the animals are killed, the volume and the acidity of their gastric juice are determined and the values obtained are compared with those of control animals which were treated similarly, but which received no test substance. The ED 50 is that dosage of test substance which brings about a 50% decrease in volume (ED 50 volume) or acidity (ED 50 acidity) of the gastric juice in the treated animals compared with the control animals.

SMILES	Inotropy Hrs (duration of activity) ([1]; 3 mg/kg) [h]	change in vivo at 3 mg/kg ([1]; 3 mg/kg) [%]	Heart frequency Hrs. (duration of activity) (heart frequency; 3 mg/kg) [h]	Heart frequency Δ% (percentage variation) (heart frequency; 3 mg/kg)	Inotropy Hrs (duration of activity) ([1]; 1 mg/kg) [h]	change in vivo at 1 mg/kg ([1]; 1 mg/kg) [%]	Heart frequency Hrs. (duration of activity) (heart frequency; 1 mg/kg) [h]	Heart frequency Δ% (percentage variation) (heart frequency; 1 mg/kg)	Inotropy Hrs (duration of activity) ([1]; 10 mg/kg) [h]	change in vivo at 10 mg/kg ([1]; 10 mg/kg) [%]	Heart frequency Hrs. (duration of activity) (heart frequency; 10 mg/kg) [h]	Heart frequency Δ% (percentage variation) (heart frequency; 10 mg/kg)	EC50 [2] [µM]	ED50 (gastric acid secretion; read-out: ED 50 acidity (50% decrease in acidity of the gastric juice)) [mg/kg]	ED50 (gastric acid secretion; read-out: ED 50 volume (50% decrease in volume of the gastric juice)) [mg/kg]
Cl.O=C1CN2C(=N1)NCc1ccccc12 [4,5-dihydroimidazo[1,2-a]quinazolin-2(1H)-one hydrochloride]	4	79	2.5	+4%	–	–	–	–	–	–	–	–	–	–	–
CC1C(=O)N=C2NCc3c(ccc(Cl)c3Cl)N21.Cl (stereo not shown) [6,7-dichloro-1-methyl-4,5-dihydroimidazo[1,2-a]quinazolin-2(1H)-one hydrochloride]	8	48	8	+16%	–	–	–	–	–	–	–	–	–	–	–
Cl.O=C1CN2C(=N1)NCc1c2ccc(Cl)c1Cl [6,7-dichloro-4,5-dihydroimidazo[1,2-a]quinazolin-2(1H)-one hydrochloride]	–	–	–	–	7.5	44	7	+22%	–	–	–	–	–	–	–
Cc1ccc2c(c1C)CNC1=NC(=O)CN12.Cl [6,7-dimethyl-4,5-dihydroimidazo[1,2-a]quinazolin-2(1H)-one hydrochloride]	–	–	–	–	–	–	–	–	6	18	6	+3%	–	–	–
Cl.O=C1CN2C(=N1)NCc1c(Cl)cccc12 [6-chloro-4,5-dihydroimidazo[1,2-a]quinazolin-2(1H)-one hydrochloride]	–	–	–	–	–	–	–	–	7	78	6	+77%	12.3	10	15
COc1ccc2c(c1Cl)CNC1=NC(=O)CN12.Cl [6-chloro-7-methoxy-4,5-dihydroimidazo[1,2-a]quinazolin-2(1H)-one hydrochloride]	7	32	6	+20%	1	10	5	+47%	7	60	7	+45%	–	–	–
Cc1cccc2c1CNC1=NC(=O)CN12.Cl [6-methyl-4,5-dihydroimidazo[1,2-a]quinazolin-2(1H)-one hydrochloride]	4.5	32	5	-12%	2	15	3.5	-7%	–	–	–	–	–	–	–
Cc1c(Br)ccc2c1CNC1=NC(=O)CN12.Cl [7-bromo-6-methyl-4,5-dihydroimidazo[1,2-a]quinazolin-2(1H)-one hydrochloride]	5.5	16	4	0%	2.5	8	4	+10%	8	120	8	+59%	35	–	–
Cl.O=C1CN2C(=N1)NCc1cc(Cl)ccc12 [7-chloro-4,5-dihydroimidazo[1,2-a]quinazolin-2(1H)-one hydrochloride]	–	–	–	–	–	–	–	–	3.5	17	3	+13%	–	–	–
Cc1c(Cl)ccc2c1CNC1=NC(=O)CN12.Cl [7-chloro-6-methyl-4,5-dihydroimidazo[1,2-a]quinazolin-2(1H)-one hydrochloride]	1	7	3	+6%	6	27	5	+4%	6	50	6	+31%	–	–	–
COc1ccc2c(c1)CNC1=NC(=O)CN12.Cl [7-methoxy-4,5-dihydroimidazo[1,2-a]quinazolin-2(1H)-one hydrochloride]	–	–	–	–	–	–	–	–	7	67	6.5	+50%	–	–	–
Cc1ccc2c(c1)CNC1=NC(=O)CN12.Cl [7-methyl-4,5-dihydroimidazo[1,2-a]quinazolin-2(1H)-one hydrochloride]	2	33	1	+6%	–	–	–	–	–	–	–	–	–	–	–
Cc1cccc2c1N1CC(=O)N=C1NC2.Cl [9-methyl-4,5-dihydroimidazo[1,2-a]quinazolin-2(1H)-one hydrochloride]	6.5	18	6	-8%	2.5	27	5.5	-19%	–	–	–	–	–	–	–
